Numbers after ± are expanded uncertainties.
Legend:
[1] = Molar enthalpy of transition or fusion; conditions: Crystal; Adiabatic calorimetry
[2] = molar heat capacity at saturation pressure; conditions: Vacuum adiabatic calorimetry

O=C1c2ccccc2-c2ccccc21 [9(9H)-fluorenone]
Conditions | Molar enthalpy of transition or fusion [kcal/mol]
[1] | 3.9101 ± 0.00335

molar heat capacity [J/K/mol], [2]
Conditions | Crystal | Liquid
4.566 K | 0.46 ± 0.017 | –
5 K | 0.6 ± 0.025 | –
5.528 K | 0.77 ± 0.025 | –
6.434 K | 1.22 ± 0.042 | –
7.474 K | 1.88 ± 0.058 | –
8.581 K | 2.71 ± 0.083 | –
9.685 K | 3.71 ± 0.12 | –
10 K | 4.02 ± 0.042 | –
10.85 K | 4.87 ± 0.05 | –
12.11 K | 6.26 ± 0.058 | –
13.44 K | 7.86 ± 0.067 | –
14.97 K | 9.678 ± 0.075 | –
16.65 K | 11.82 ± 0.091 | –
18.49 K | 14.15 ± 0.1 | –
20 K | 16.01 ± 0.11 | –
20.45 K | 16.55 ± 0.11 | –
22.62 K | 19.26 ± 0.12 | –
25.08 K | 22.19 ± 0.14 | –
27.79 K | 25.34 ± 0.15 | –
30 K | 27.82 ± 0.075 | –
30.74 K | 28.64 ± 0.075 | –
33.98 K | 32.05 ± 0.083 | –
37.55 K | 35.61 ± 0.091 | –
40 K | 37.94 ± 0.091 | –
41.59 K | 39.4 ± 0.091 | –
46.13 K | 43.45 ± 0.1 | –
50 K | 46.83 ± 0.11 | –
51.2 K | 47.85 ± 0.11 | –
56.87 K | 52.2 ± 0.12 | –
56.9 K | 52.18 ± 0.12 | –
60 K | 54.38 ± 0.12 | –
62.55 K | 56.09 ± 0.12 | –
62.62 K | 56.16 ± 0.12 | –
68.7 K | 60.3 ± 0.13 | –
70 K | 61.14 ± 0.13 | –
72.85 K | 62.96 ± 0.13 | –
75.63 K | 64.74 ± 0.13 | –
80 K | 67.46 ± 0.14 | –
83.16 K | 69.38 ± 0.14 | –
84.2 K | 70.02 ± 0.15 | –
90 K | 73.43 ± 0.22 | –
91.53 K | 74.32 ± 0.22 | –
92.55 K | 74.86 ± 0.22 | –
100 K | 79.14 ± 0.22 | –
100.6 K | 79.46 ± 0.22 | –
101.73 K | 80.16 ± 0.22 | –
109.97 K | 84.81 ± 0.22 | –
119.46 K | 90.1 ± 0.22 | –
120 K | 90.41 ± 0.22 | –
129.35 K | 95.77 ± 0.23 | –
139.36 K | 101.53 ± 0.23 | –
140 K | 101.91 ± 0.23 | –
149.34 K | 107.42 ± 0.24 | –
159.36 K | 113.33 ± 0.25 | –
160 K | 113.73 ± 0.25 | –
169.39 K | 119.4 ± 0.26 | –
179.42 K | 125.52 ± 0.27 | –
180 K | 125.91 ± 0.27 | –
189.44 K | 131.93 ± 0.27 | –
199.45 K | 138.28 ± 0.27 | –
200 K | 138.65 ± 0.27 | –
209.47 K | 144.93 ± 0.28 | –
219.38 K | 151.48 ± 0.29 | –
220 K | 151.91 ± 0.29 | –
229.4 K | 158.17 ± 0.3 | –
239.49 K | 164.92 ± 0.31 | –
240 K | 165.3 ± 0.31 | –
249.56 K | 172.03 ± 0.32 | –
259.56 K | 178.91 ± 0.32 | –
260 K | 179.23 ± 0.32 | –
269.56 K | 185.84 ± 0.33 | –
279.57 K | 192.92 ± 0.34 | –
280 K | 193.1 ± 0.34 | –
289.32 K | 199.64 ± 0.35 | –
296.08 K | 204.14 ± 0.35 | –
298.15 K | 205.82 ± 0.36 | –
299.29 K | 206.68 ± 0.36 | –
300 K | 207.11 ± 0.36 | –
305.5 K | 210.87 ± 0.36 | –
308.47 K | 212.74 ± 0.36 | –
309.21 K | 213.37 ± 0.37 | –
315.7 K | 218.21 ± 0.37 | –
316.59 K | 218.89 ± 0.37 | –
320 K | 221.01 ± 0.37 | –
324.75 K | 224.49 ± 0.37 | –
325.3 K | 224.82 ± 0.37 | –
332.95 K | 230.04 ± 0.38 | –
335.34 K | 231.75 ± 0.38 | –
340 K | 235.18 ± 0.39 | 282.8 ± 0.44
340.05 K | – | 282.82 ± 0.44
341.17 K | 235.83 ± 0.39 | –
345.34 K | 238.85 ± 0.39 | –
349.26 K | – | 287 ± 0.45
349.41 K | 242.52 ± 0.4 | –
356.52 K | 247.86 ± 0.4 | 290.4 ± 0.45
359.51 K | – | 291.82 ± 0.46
360 K | – | 291.97 ± 0.46
363.97 K | – | 293.73 ± 0.46
364.32 K | – | 293.78 ± 0.46
367.03 K | – | 295.01 ± 0.46
373.93 K | – | 298.26 ± 0.47
380 K | – | 301.01 ± 0.47
386.08 K | – | 303.75 ± 0.47
398.35 K | – | 309.31 ± 0.47
400 K | – | 310.04 ± 0.47
410.74 K | – | 314.78 ± 0.48
420 K | – | 318.92 ± 0.48
423.26 K | – | 320.37 ± 0.49
435.5 K | – | 325.69 ± 0.49
440 K | – | 327.65 ± 0.5
447.89 K | – | 331.01 ± 0.5
460 K | – | 336.07 ± 0.51
460.14 K | – | 336.12 ± 0.51
472.54 K | – | 341.25 ± 0.52
477.16 K | – | 343.14 ± 0.52
480 K | – | 344.22 ± 0.52
487.83 K | – | 347.32 ± 0.52
490.73 K | – | 348.64 ± 0.52
499.62 K | – | 352.16 ± 0.52
500 K | – | 352.28 ± 0.52
505.44 K | – | 354.68 ± 0.53
509.99 K | – | 356.21 ± 0.53
518.82 K | – | 359.99 ± 0.53
519.26 K | – | 360.18 ± 0.53
520 K | – | 360.47 ± 0.53

From the NIST ThermoML archive (doi:10.1016/j.jct.2012.05.003)
